Columns and labels:
[1] = 170 mg/kg intravenously; cited from earlier work
prostanoids = assay: Prostanoid release (ELISA) from organ cultured muscularis; type: in vivo, rat; details: manipulated rats, glycine 170 mg/kg or valine
Experimental: Age matched animals treated with vehicle (normal saline) or valine (263.5 mg/kg, osmotic control) at appropriate time points and at equal volumes served as controls. The rodent intestine was subjected to a standardized degree of surgical manipulation as described previously (14). Rats were anesthetized by isoflurane inhalation and the abdomen was opened by a midline laparotomy. The cecum was eventrated and laid out onto a moist gauze. Then, the intestine was inspected along its length and gently compressed using moist cotton applicators. The midline incision was closed by two layers of continuous sutures. All operative procedures were performed under sterile conditions with the intestine being handled only by instruments and never touched directly. Animals were killed at specific time points postoperatively by isoflurane anesthesia inhalation overdose and heart incision. The synthesis of prostanoids released into the tissue culture supernatant over a period of 24 hours was assayed by ELISA. After incubation the culture median and tissue was inspected, 500 μL aliquots of supernatant were frozen in liquid nitrogen and stored at −80° C. The muscle tissue was blotted dry and weighed. Culture supernatants were assayed for the measurement of prostaglandin secretion by enzyme immunoassay (Cayman Chemicals, Ann Arbor, Mich.). The ELISA was carried out in a 1:10 and 1:30 dilution. The assay was corrected for wet tissue weights and the prostaglandin ELISA kit sensitivity was 20 pg/ml.

nitrite (nitric oxide) = assay: Nitrite release (Griess reaction) from organ cultured muscularis; type: in vivo, rat
Experimental: Age matched animals treated with vehicle (normal saline) or valine (263.5 mg/kg, osmotic control) at appropriate time points and at equal volumes served as controls.
The rodent intestine was subjected to a standardized degree of surgical manipulation as described previously (14). Rats were anesthetized by isoflurane inhalation and the abdomen was opened by a midline laparotomy. The cecum was eventrated and laid out onto a moist gauze. Then, the intestine was inspected along its length and gently compressed using moist cotton applicators. The midline incision was closed by two layers of continuous sutures. All operative procedures were performed under sterile conditions with the intestine being handled only by instruments and never touched directly. Animals were killed at specific time points postoperatively by isoflurane anesthesia inhalation overdose and heart incision.
Tissue culture and determination of nitrite and prostanoid release in supernatant: The rat small intestine and colon were processed for tissue culture at 24 hours as described previously, (N=5-8) (25). Briefly, the muscularis was isolated by stripping the muscularis from the mucosa and then cut into small pieces and washed twice in Hank's balanced salt solution (HBSS) with 100 U/ml penicillin G and 100 μg/ml streptomycin. Aliquots of muscularis ([…]) were incubated (37° C., 5% CO2) in 6-well tissue culture plates containing 3 ml of supplemented Dulbecco's modified Eagle medium (DMEM)-F12 with 100 U/ml penicillin G and 100 μg/ml streptomycin. After an incubation period of 24 hours, 500 μl aliquots of supernatant were collected, frozen in liquid nitrogen and stored at −80° C. The muscle tissue was blotted dry, and the weight was estimated. To estimate the generation of NO from the intestinal muscularis, nitrite production was measured by the Griess reaction (44). Supernatant from the tissue culture was mixed with equal amount of Griess reagent (0.1% N-(1-naphtyl)ethyl-enediamine dihydrochloride and 1% sulfanilamide in 6% phosphoric acid; 1:1) and incubated at room temperature for 10 minutes. The absorbance at 550 nm was measured with a microplate reader and compared with standard prepared from serial dilutions of sodium nitrite. Each standard and supernatant sample was analyzed in duplicate, and the mean value of nitrite production was normalized to the tissue weight.
Methods: ACI-rats (180-220 g) underwent standardized surgical manipulation of the intestine. […] Age matched animals treated with vehicle or valine (osmotic control) at appropriate time points and at equal volumes served as controls. […] Postoperative mediator mRNA expression in the intestinal muscularis was determined by real-time RT PCR. Leukocyte extravasation was investigated in muscularis whole-mounts. Nitrite production was measured in muscularis cultures. In vivo transit of FITC-dextran was measured using geometric center analysis (GC). In vitro circular muscle contractility was assessed in a standard organ bath. Statistical analysis: unpaired Student t test, p<0.05, mean±SEM.

For NCC(=O)O [glycine], the “increase of glycine serum levels” value [1] is given as “about sevenfold”, the “prostanoid release, fold of control, colon” value (prostanoids; colonic muscularis 24 h organ culture, SM 3.1-fold) is given as 0.7 fold and the “prostanoid release, fold of control, jejunum” value (prostanoids; jejunal muscularis 24 h organ culture, SM 5.9-fold) is given as 0.9 fold. The “attenuation of postoperative increase in nitrite production” value (nitrite (nitric oxide); Example 5, muscularis cultures, glycine (170 mg) i.v. 1 hour prior to surgery) was 39%, the “nitrite release, fold increase over control, colon” value (nitrite (nitric oxide); manipulated rats, colonic muscularis 24 h organ culture, glycine 170 mg/kg or valine, SM vehicle 10.9-fold) was 2.5 fold and the “nitrite release, fold increase over control, jejunum” value (nitrite (nitric oxide); manipulated rats, jejunal muscularis 24 h organ culture, glycine 170 mg/kg or valine, SM vehicle 11.4-fold) was 2.7 fold. For the same compound, the “Griess reaction measurements from the unmanipulated muscularis” value (nitrite (nitric oxide); unmanipulated, glycine 170 mg/kg) was “no significant effects”.

Source: patent US20090238792A1, “SUPPRESSION OF POSTOPERATIVE ILEUS” (University of Pittsburgh of the Commonwealth System of …, priority 2007, published 2009)
